Test results: BigSolDB 2.1

O=C(NC(=O)c1c(F)cccc1F)Nc1cc(Cl)c(F)c(Cl)c1F
solubility (mole fraction)
Settings | 278.15 K | 283.15 K | 288.15 K | 293.15 K | 298.15 K | 303.15 K | 308.15 K | 313.15 K | 318.15 K | 323.15 K
in DMF | 0.174 | 0.186 | 0.2 | 0.213 | 0.228 | 0.243 | 0.26 | 0.275 | 0.292 | 0.308
in ethanol | 0.0485 | 0.0515 | 0.0549 | 0.0582 | 0.0614 | 0.0647 | 0.0676 | 0.0708 | 0.0744 | 0.0782
in methanol | 0.0672 | 0.0729 | 0.0792 | 0.0854 | 0.0925 | 0.1 | 0.108 | 0.116 | 0.124 | 0.133
in propylene glycol | 0.0199 | 0.0212 | 0.0227 | 0.0241 | 0.0255 | 0.0269 | 0.0282 | 0.0296 | 0.0311 | 0.0327
in water | 6.82e-06 | 7.49e-06 | 8.19e-06 | 8.88e-06 | 9.72e-06 | 1.07e-05 | 1.17e-05 | 1.26e-05 | 1.36e-05 | 1.47e-05
